Results on one compound are retold here after patent US20090170801A1 (Beijing Century Biocom Pharmaceutical Technology Co. Ltd., priority 2006, published 2009).

The subject of one experiment is decapitated mice. In words: Breathing time, breathing frequency, brain index and brain water content in decapitated mice. Format: in vivo, ICR mice. The conditions noted are these: 2 mg/kg tail i.v. The method, then:
The model group was administrated normal salt. At 15 minutes after administration, the mice were decapitated by a pair of scissors. The mouth breathing time, breathing frequency and brain water content were recorded and compared with other groups. Whole brains were collected. After the wet weight was obtained, they were dried in an oven at 100° C. for 24 hours. The average value was taken to calculate brain water content: brain water content (%)=[…]. Brain index: brain index=brain wet weight (g)/body weight (g)×100%.

A further experiment relates to brain of ischemic mice. In words: Cerebral ischemia in mice with common carotid artery ligation and reperfusion (brain LDH and SOD). Format: in vivo. Conditions: 2 mg/kg tail i.v. The method, then:
Grouped mice were respectively administered test substance, nimodipine or normal salt by tail intravenous injection. After 15 minutes, the mice were anesthetized with 3.5% chloral hydrate, fixed in the back. The right and left common carotid artery and vagus nerve were exposed, and 4-0 suture was inserted under the bilateral carotid artery. The suture was tightened to block blood flow for 5 minutes. Then the line was loosened to restore blood flow for 10 minutes. The operation was repeated three times, and an ischemia-reperfusion model in mice was established. After the last reperfusion, the mice were decapitated and brain collected. In the control group, only the bilateral carotid arteries were exposed, without a suture being inserted.

Structures are written as SMILES.

Compound `COCCOC(=O)C1=C(C)NC(C)=C(C(=O)OC(C)C)C1c1cccc([N+](=O)[O-])c1` (stereo not drawn) [Nimodipine, nimodipine] gave a Brain water content with decapitated mice of 75.8 ± 1.0 %. In the experiment with brain of ischemic mice, this compound displayed an LDH of 11.3 ± 6.6 U/mg and an SOD of 144.77 ± 21.61 U/mg.
